Experimental data taken from patent US6492416B1, “4,5-diaryl-3(2H)-furanone derivatives as cyclooxygenase-2 inhibitors” (Pacific Corporation, priority 1999, dated 2002).
Converted amounts (≈) assume the structure as drawn.

Assays:
COX-1 = target: T1, COX-1 (Mus musculus, UniProt P22437); test: Evaluation of COX-1 activity: PGE2 formation in mouse peritoneal macrophages without aspirin and LPS treatment; assay type: cell-based
T1 sequence (P22437 27-602): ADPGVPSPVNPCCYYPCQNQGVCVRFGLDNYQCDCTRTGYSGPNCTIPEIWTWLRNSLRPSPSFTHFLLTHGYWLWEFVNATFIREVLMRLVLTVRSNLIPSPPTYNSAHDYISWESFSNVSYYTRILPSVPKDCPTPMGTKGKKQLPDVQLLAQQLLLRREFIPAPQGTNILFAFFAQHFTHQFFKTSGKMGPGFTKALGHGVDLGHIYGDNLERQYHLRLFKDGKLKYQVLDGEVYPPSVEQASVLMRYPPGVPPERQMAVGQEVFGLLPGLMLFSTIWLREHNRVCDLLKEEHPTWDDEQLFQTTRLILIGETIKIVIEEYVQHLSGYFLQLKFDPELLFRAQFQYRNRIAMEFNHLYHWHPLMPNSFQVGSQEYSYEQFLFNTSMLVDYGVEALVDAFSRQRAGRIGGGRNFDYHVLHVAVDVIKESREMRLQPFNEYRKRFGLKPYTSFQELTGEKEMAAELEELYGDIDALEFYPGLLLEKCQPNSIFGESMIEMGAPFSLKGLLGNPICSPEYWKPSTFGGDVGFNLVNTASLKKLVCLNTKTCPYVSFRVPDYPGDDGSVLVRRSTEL
Outline: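 Peritoneal macrophages from C57BL/6 mice, without aspirin or LPS treatment, were plated at 1×10^6 cells/ml and fixed 2 h at 37 °C. Cells were preincubated 10 min, then given 10 μM arachidonic acid plus compound for 10 min; PGE2 was measured by RIA or EIA. IC50 came from 4–5 concentrations.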

[1] = tested on: male Sprague-Dawley (SD) rats; test: Carrageenan-induced foot edema in rats (CFE); assay type: in vivo; settings: oral dose 3 mg/kg body weight, rat, paw volume 3 hours after Carrageenan
Protocol: An appropriate amount of a compound of this invention suspended in 1% methylcellulose (MC) solution was administered to male Sprague-Dawley (SD) rats weighing 150˜200 g by oral gavage. The volume of the administered vehicle for a compound of this invention was controlled to be smaller than 10 ml/kg body weight of the animal. One hour later, 0.1 ml of 1% Carrageenan saline solution was directly injected into the right paw of the rats to induce edema in the paw. The paw volumes at 0 hour and at 3 hours after the injection of Carrageenan were measured by using a displacement plethysmometer (Ugo Basile, Italy). The paw volumes were used to calculate % inhibition of CFE by an amount of a compound of this invention according to the following equation.
% Inhibition of CFE=(1−Δtreated/Δcontrol)×100
wherein Δtreated=[paw volume at three hours after the Carrageenan injection−paw volume right after Carrageenan injection] for a drug-administered rat, and Δcontrol=[paw volume at three hours after the Carrageenan injection−paw volume right after Carrageenan injection] for a rat without drug administration.
In order to determine the inhibitory activity of a compound of this invention at a dose, usually 5 to 8 animals were used both for drug-treated group and for control group.

COX-2 = target: T2, COX-2 (Mus musculus, UniProt Q05769); test: Evaluation of COX-2 activity: PGE2 formation in aspirin-treated, LPS-stimulated mouse peritoneal macrophages; assay type: cell-based
T2 sequence (Q05769 18-604): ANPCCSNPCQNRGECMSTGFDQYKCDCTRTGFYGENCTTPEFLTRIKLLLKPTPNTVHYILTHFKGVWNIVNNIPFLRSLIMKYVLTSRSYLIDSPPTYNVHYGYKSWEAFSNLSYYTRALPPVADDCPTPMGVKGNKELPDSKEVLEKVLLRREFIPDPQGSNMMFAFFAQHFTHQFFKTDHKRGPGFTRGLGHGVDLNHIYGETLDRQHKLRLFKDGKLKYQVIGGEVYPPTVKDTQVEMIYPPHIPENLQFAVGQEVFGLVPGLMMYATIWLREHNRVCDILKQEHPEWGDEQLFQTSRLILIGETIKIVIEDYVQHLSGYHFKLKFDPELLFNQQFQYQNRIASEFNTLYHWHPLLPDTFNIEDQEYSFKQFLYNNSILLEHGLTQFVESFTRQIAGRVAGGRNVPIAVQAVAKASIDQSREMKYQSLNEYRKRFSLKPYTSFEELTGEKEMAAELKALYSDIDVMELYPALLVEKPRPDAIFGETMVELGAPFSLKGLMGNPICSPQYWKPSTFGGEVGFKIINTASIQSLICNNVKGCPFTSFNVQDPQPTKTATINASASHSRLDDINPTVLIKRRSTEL
Outline: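 PGE2 output, quantified by radio- or enzyme-immunoassay, was read after 10 min exposure of cells to compound with 10 μM arachidonic acid. Cells were mouse peritoneal macrophages, COX-1 knocked out with 500 μM aspirin and COX-2 induced by 10 μg/ml LPS over 16 h. IC50 derived from 4–5 concentrations.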

Compound | melting point [°C] | IC50, μg/ml COX-1 (COX-1) [µg/mL] | IC50, μg/ml COX-2 (COX-2) [µg/mL] | IC50 (COX-1; read-out: IC50, μg/ml COX-1 (converted)) [µM] | IC50 (COX-2; read-out: IC50, μg/ml COX-2 (converted)) [µM] | % Inhibition (CFE) [1] [%]
5-{(aminosulfonyl)-3-fluorophenyl}-4-(3,5-difluorophenyl)-2,2-dimethyl-3(2H)-furanone [Example 312] |  | 100 | 0.02 |  |  | 31
CC1(C)OC(c2ccc(S(N)(=O)=O)cc2F)=C(c2cccc(F)c2)C1=O [Example 333] | 168 to 170 | 10 (≈ 26.4 µM) | 0.003 (≈ 0.00791 µM) |  |  | 25
CC1(C)OC(c2ccc(S(C)(=O)=O)c(Cl)c2)=C(c2ccc(F)c(F)c2)C1=O [Example 361] | 150 to 151 | 4 (≈ 9.69 µM) | 0.009 (≈ 0.0218 µM) |  |  | 41
CC1(C)OC(c2ccc(S(N)(=O)=O)cc2)=C(c2cc(F)ccc2F)C1=O [Example 157] | 182 to 183 | 5.15 (≈ 13.6 µM) | 0.038 (≈ 0.1 µM) |  |  | 41
CCSc1ccc(C2=C(c3ccc(S(N)(=O)=O)cc3)OC(C)(C)C2=O)cc1 [Example 146] | 185 | 0.83 (≈ 2.06 µM) | 0.0014 (≈ 0.00347 µM) |  |  | 24
CC1(C)OC(c2ccc(S(N)(=O)=O)cc2)=C(c2ccccc2F)C1=O [Example 155] | 188 to 189 | 1.8 (≈ 4.98 µM) | 0.016 (≈ 0.0443 µM) |  |  | 35
CC1(C)OC(c2ccc(S(N)(=O)=O)c(F)c2)=C(c2ccc(F)c(F)c2)C1=O [Example 311] | 199 to 200 | 3 (≈ 7.55 µM) | 0.03 (≈ 0.0755 µM) |  |  | 30
CC1(C)OC(c2ccc(S(N)(=O)=O)cc2)=C(c2cccc(C(F)(F)F)c2)C1=O [Example 23, 5-{4-(Aminosulfonyl)phenyl}-2,2-dimethyl-4-{3-(trifluoromethyl)phenyl}-3(2H)-furanone] |  |  |  |  |  | 33
Cc1cccc(C2=C(c3ccc(S(C)(=O)=O)cc3)OC3(CCCC3)C2=O)c1 [Example 255] | 142 to 143 | 3 (≈ 7.84 µM) | 0.03 (≈ 0.0784 µM) |  |  | 31
Cn1cc(C2=C(c3ccc(S(C)(=O)=O)cc3)OC(C)(C)C2=O)cn1 [Example 20, 2,2-Dimethyl-4-{4-(1-N-methylpyrazolyl)}-5-{4-(methylsulfonyl)phenyl)-3(2H)-furanone] | 114 to 115 |  |  |  |  | 36
CC(C)c1ccc(C2=C(c3ccc(S(C)(=O)=O)cc3)OC(C)(C)C2=O)cc1 [Example 84] | 121 to 123 | 3 (≈ 7.8 µM) | 0.03 (≈ 0.078 µM) |  |  | 25
CC1(C)OC(c2ccc(S(N)(=O)=O)c(F)c2)=C(c2cccc(F)c2)C1=O [Example 302] | 178 to 179 | 5 (≈ 13.2 µM) | 0.03 (≈ 0.0791 µM) |  |  | 27
CC1(C)OC(c2ccc(S(N)(=O)=O)c(Cl)c2)=C(c2cccc(Cl)c2)C1=O [Example 368] | 162 to 163 | 7 (≈ 17 µM) | 0.02 (≈ 0.0485 µM) |  |  | 
Cn1cc(C2=C(c3ccc(S(N)(=O)=O)cc3)OC(C)(C)C2=O)cn1 [Example 164] |  | 100 (≈ 288 µM) | 0.03 (≈ 0.0864 µM) |  |  | 29
CC1(C)OC(c2ccc(S(N)(=O)=O)cc2)=C(c2ccco2)C1=O [Example 160] | 156 to 157 | >10 | 0.057 (≈ 0.171 µM) |  |  | 
CC1(C)OC(c2ccc(S(C)(=O)=O)cc2F)=C(c2cccc(Cl)c2)C1=O [Example 322] | 139 to 140 | 3 (≈ 7.6 µM) | 0.02 (≈ 0.0507 µM) |  |  | 
CC1(C)OC(c2ccc(S(C)(=O)=O)c(F)c2)=C(c2c(F)cccc2F)C1=O [Example 283] | 113 to 115 | 90 (≈ 227 µM) | 0.7 (≈ 1.77 µM) |  |  | 

Now from value to compound, other results behind:

melting point [°C] | IC50, μg/ml COX-1 (COX-1) [µg/mL] | IC50, μg/ml COX-2 (COX-2) [µg/mL] | IC50 (COX-1; read-out: IC50, μg/ml COX-1 (converted)) [µM] | IC50 (COX-2; read-out: IC50, μg/ml COX-2 (converted)) [µM] | Compound | % Inhibition (CFE) [1] [%]
158 to 159 | 10 (≈ 25.2 µM) | 0.03 (≈ 0.0757 µM) |  |  | CC1(C)OC(c2ccc(S(C)(=O)=O)c(F)c2)=C(c2ccc(F)c(F)c2)C1=O [Example 284] | 33
133 to 134 | 30 (≈ 82.8 µM) | 5 (≈ 13.8 µM) |  |  | C[S+]([O-])c1ccc(C2=C(c3cc(F)cc(F)c3)C(=O)C(C)(C)O2)cc1 (centres unmarked) [Example 177, 4-(3,5-Difluorophenyl)-2,2-dimethyl-5-{4-(methylsulfinyl)phenyl}-3(2H)-furanone] | 37
160 to 161 | 10 (≈ 26.4 µM) | 0.05 (≈ 0.132 µM) |  |  | CC1(C)OC(c2ccc(S(C)(=O)=O)c(F)c2)=C(c2ccc(F)cc2)C1=O [Example 276] | 26
94 to 95 |  |  | 12.8 | 0.0767 | CCC1(C)OC(c2ccc(S(C)(=O)=O)cc2)=C(c2cccc(Cl)c2)C1=O (centres unmarked) [Example 195] | 28
185 to 187 | 3 (≈ 7.55 µM) | 0.003 (≈ 0.00755 µM) |  |  | CC1(C)OC(c2ccc(S(N)(=O)=O)cc2F)=C(c2cc(F)cc(F)c2)C1=O [Example 335] | 32
163 to 164 | 200 (≈ 507 µM) | 0.02 (≈ 0.0507 µM) |  |  | CC1(C)OC(c2ccc(S(C)(=O)=O)c(Cl)c2)=C(c2cccc(F)c2)C1=O [Example 359] | 28
108 to 109 | 30 (≈ 76 µM) | 0.05 (≈ 0.127 µM) |  |  | CC1(C)OC(c2ccc(S(C)(=O)=O)c(F)c2)=C(c2cccc(Cl)c2)C1=O [Example 278] | 27
133 to 134 | 50 (≈ 114 µM) | 0.03 (≈ 0.0683 µM) |  |  | CC1(C)OC(c2ccc(S(C)(=O)=O)c(Br)c2)=C(c2cccc(F)c2)C1=O [Example 343] | 25
193 to 194 | 8 (≈ 21.2 µM) | 0.06 (≈ 0.159 µM) |  |  | CC1(C)OC(c2ccc(S(N)(=O)=O)c(Cl)c2)=C(c2ccccc2)C1=O [Example 367, 5-{4-(Aminosulfonyl)-3-chlorophenyl}-2,2-dimethyl-4-phenyl-3(2H)-furanone] | 
142 to 143 | 50 (≈ 125 µM) | 0.5 (≈ 1.25 µM) |  |  | CC1(C)OC(c2ccc(S(C)(=O)=O)cc2)=C(c2ccc(C(C)(C)C)cc2)C1=O [Example 76] | 
143 to 144 |  | 1 (≈ 2.9 µM) |  |  | C[S+]([O-])c1ccc(C2=C(c3cccc(F)c3)C(=O)C(C)(C)O2)cc1 (centres unmarked) [Example 176, 2,2-dimethyl-4-(3-fluorophenyl)-5-{4-(methylsulfinyl)phenyl}-3(2H)-furanone] | 23
